Data on 21 compounds can be found in patent US20260226031A1, “NOVEL COMPOUNDS” (NRG THERAPEUTICS LTD., priority 2023, published 2026).

Assay [1] relates to mPTP. The assay can be described thus: mPTP activity (Ca2+ retention) assay in isolated rat liver mitochondria. Type of assay: biochemical. The settings on record: isolated rat liver mitochondria; Fluo5N fluorescence at 10 min after CaCl2 (75 μM) bolus; DMSO 0%, 5 μM cyclosporin A 100% inhibition. The procedure, abridged:
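Freshly isolated female Sprague Dawley rat liver mitochondria with succinate, rotenone and Fluo5N were preincubated 10 min at RT with compounds (final 30 μM to 1 nM), then challenged with CaCl2. Fluorescence at 10 min gave % inhibition versus DMSO (0%) and 5 μM cyclosporin A (100%); pIC50 calculated.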

The test system of assay [2] is mPTP. The assay can be described thus: mPTP activity (Ca2+ retention) assay in isolated rat brain mitochondria. Format: biochemical. The settings on record: isolated rat brain mitochondria; Fluo5N fluorescence at 10 min after Ca2+ (75 μM) bolus. The essentials: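 Mitochondria freshly isolated from brains of perfused female Sprague Dawley rats, digitonin-treated, in pH 7.4 mannitol/MOPS/KCl buffer with pyruvate, malate, ADP and oligomycin A. Incubated with compound 10 min at RT with 2 μM Fluo5N. Fluorescence then read every 3 s for 10 min.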

For the compound `O=C(c1cc(O)no1)N1CC(c2cccc(F)c2)C2(CCC2)C1` (single isomer, unassigned) [Example 38a, (8-(3-fluorophenyl)-6-azaspiro[3.4]octan-6-yl)(3-hydroxyisoxazol-5-yl)methanone], the “mPTP Rat liver pIC50*” value with mPTP [1] is listed as 6.41. Moreover, in the assay on mPTP [2], the “mPTP Rat brain pIC50” value came out at 7.34.

In the case of `O=C(c1cc(O)no1)N1CC(c2cccc(F)c2)C2(CCC2)C1` (single isomer, unassigned) [Example 38b, (8-(3-fluorophenyl)-6-azaspiro[3.4]octan-6-yl)(3-hydroxyisoxazol-5-yl)methanone], the “mPTP Rat liver pIC50*” value in the assay with mPTP [1] is reported as less than 4.52. The “mPTP Rat brain pIC50” value in the assay with mPTP [2] is less than 4.52.

Turning to `O=C(c1cc(O)no1)N1CC(c2cccc(F)c2F)C2(CCC2)C1` (single isomer, unassigned) [Example 39a, (8-(2,3-difluorophenyl)-6-azaspiro[3.4]octan-6-yl)(3-hydroxyisoxazol-5-yl)methanone], the “mPTP Rat liver pIC50*” value in the assay with mPTP [1] is given as 6.47. Also, the “mPTP Rat brain pIC50” value with mPTP [2] amounted to 7.41.

In the case of `O=C(c1cc(O)no1)N1CC(c2cccc(F)c2F)C2(CCC2)C1` (single isomer, unassigned) [Example 39b, (8-(2,3-difluorophenyl)-6-azaspiro[3.4]octan-6-yl)(3-hydroxyisoxazol-5-yl)methanone], the “mPTP Rat liver pIC50*” value with mPTP [1] is given as less than 4.52. Besides, the “mPTP Rat brain pIC50” value in the assay with mPTP [2] is recorded as less than 4.52.

As for `O=C(c1cncc(=O)[nH]1)N1CC(c2cccc(F)c2)C2(CCC2)C1` (single isomer, unassigned) [Example 40a, 6-(8-(3-fluorophenyl)-6-azaspiro[3.4]octane-6-carbonyl)pyrazin-2(1H)-one], the “mPTP Rat liver pIC50*” value in the assay on mPTP [1] stood at 6.55. Besides, the “mPTP Rat brain pIC50” value in the assay on mPTP [2] is 7.34.

Consider `O=C(c1cncc(=O)[nH]1)N1CC(c2cccc(F)c2)C2(CCC2)C1` (single isomer, unassigned) [Example 40b, 6-(8-(3-fluorophenyl)-6-azaspiro[3.4]octane-6-carbonyl)pyrazin-2(1H)-one], for which the “mPTP Rat liver pIC50*” value with mPTP [1] worked out at 4.97. Moreover, the “mPTP Rat brain pIC50” value with mPTP [2] is listed as less than 4.52.

As for `O=C(c1noc(=O)[nH]1)N1CC(c2ccc(F)cc2)C2(CCC2)C1` (single isomer, unassigned) [Example 41a, 3-(8-(4-fluorophenyl)-6-azaspiro[3.4]octane-6-carbonyl)-1,2,4-oxadiazol-5(4H)-one], the “mPTP Rat liver pIC50*” value in the assay with mPTP [1] was determined as 5.95. Besides, in the assay with mPTP [2], the “mPTP Rat brain pIC50” value was 7.19.

Take `O=C(c1noc(=O)[nH]1)N1CC(c2ccc(F)cc2)C2(CCC2)C1` (single isomer, unassigned) [Example 41b, 3-(8-(4-fluorophenyl)-6-azaspiro[3.4]octane-6-carbonyl)-1,2,4-oxadiazol-5(4H)-one]: the “mPTP Rat liver pIC50*” value in the assay on mPTP [1] was less than 4.52. Further, the “mPTP Rat brain pIC50” value in the assay on mPTP [2] is reported as less than 4.52.

For the compound `O=C(c1cc(O)no1)N1CC(c2ccc(F)cc2F)C2(CCC2)C1` (single isomer, unassigned) [Example 42a, (8-(2,4-difluorophenyl)-6-azaspiro[3.4]octan-6-yl)(3-hydroxyisoxazol-5-yl)methanone], in the assay with mPTP [1], the “mPTP Rat liver pIC50*” value was found to be 6.26. Moreover, in the assay with mPTP [2], the “mPTP Rat brain pIC50” value is listed as 6.99.

`O=C(c1cc(O)no1)N1CC(c2ccc(F)cc2F)C2(CCC2)C1` (single isomer, unassigned) [Example 42b, (8-(2,4-difluorophenyl)-6-azaspiro[3.4]octan-6-yl)(3-hydroxyisoxazol-5-yl)methanone]: the “mPTP Rat liver pIC50*” value with mPTP [1] was less than 4.52. Also, the “mPTP Rat brain pIC50” value with mPTP [2] is on record as less than 4.52.

In the case of `O=C(c1cncc(=O)[nH]1)N1CC(c2cccc(F)c2F)C2(CCC2)C1` (single isomer, unassigned) [Example 43a, 6-(8-(2,3-difluorophenyl)-6-azaspiro[3.4]octane-6-carbonyl)pyrazin-2(1H)-one], in the assay on mPTP [1], the “mPTP Rat liver pIC50*” value turned out to be 6.56. For the same compound, in the assay on mPTP [2], the “mPTP Rat brain pIC50” value came out at 7.43.

For `O=C(c1cncc(=O)[nH]1)N1CC(c2cccc(F)c2F)C2(CCC2)C1` (single isomer, unassigned) [Example 43b, 6-(8-(2,3-difluorophenyl)-6-azaspiro[3.4]octane-6-carbonyl)pyrazin-2(1H)-one], the “mPTP Rat liver pIC50*” value in the assay with mPTP [1] stood at 4.94. Moreover, in the assay on mPTP [2], the “mPTP Rat brain pIC50” value is recorded as 5.69.

For `O=C(c1noc(=O)[nH]1)N1CC(c2cccc(F)c2F)C2(CCC2)C1` (single isomer, unassigned) [Example 44a, 3-(8-(2,3-difluorophenyl)-6-azaspiro[3.4]octane-6-carbonyl)-1,2,4-oxadiazol-5(4H)-one], in the assay with mPTP [1], the “mPTP Rat liver pIC50*” value was 5.63. In addition, the “mPTP Rat brain pIC50” value with mPTP [2] worked out at 7.33.

In the case of `O=C(c1noc(=O)[nH]1)N1CC(c2cccc(F)c2F)C2(CCC2)C1` (single isomer, unassigned) [Example 44b, 3-(8-(2,3-difluorophenyl)-6-azaspiro[3.4]octane-6-carbonyl)-1,2,4-oxadiazol-5(4H)-one], in the assay on mPTP [1], the “mPTP Rat liver pIC50*” value is listed as less than 4.52. In addition, in the assay with mPTP [2], the “mPTP Rat brain pIC50” value was found to be 5.19.

With `O=C(c1cncc(=O)[nH]1)N1CC(c2ccc(F)c(F)c2)C2(CCC2)C1` (single isomer, unassigned) [Example 45a, 6-(8-(3,4-difluorophenyl)-6-azaspiro[3.4]octane-6-carbonyl)pyrazin-2(1H)-one], the “mPTP Rat liver pIC50*” value in the assay on mPTP [1] is recorded as 6.15. Besides, in the assay on mPTP [2], the “mPTP Rat brain pIC50” value is 7.45.

For the compound `O=C(c1cncc(=O)[nH]1)N1CC(c2ccc(F)c(F)c2)C2(CCC2)C1` (single isomer, unassigned) [Example 45b, 6-(8-(3,4-difluorophenyl)-6-azaspiro[3.4]octane-6-carbonyl)pyrazin-2(1H)-one], the “mPTP Rat liver pIC50*” value with mPTP [1] is on record as less than 4.52. For the same compound, the “mPTP Rat brain pIC50” value in the assay on mPTP [2] came out at 6.78.

Regarding `O=C(c1cc(O)no1)N1CC(c2ccc(F)c(F)c2)C2(CCC2)C1` (single isomer, unassigned) [Example 46a, (8-(3,4-difluorophenyl)-6-azaspiro[3.4]octan-6-yl)(3-hydroxyisoxazol-5-yl)methanone], the “mPTP Rat liver pIC50*” value with mPTP [1] is given as 6.28. Further, the “mPTP Rat brain pIC50” value in the assay with mPTP [2] worked out at 7.44.

As for `O=C(c1cc(O)no1)N1CC(c2ccc(F)c(F)c2)C2(CCC2)C1` (single isomer, unassigned) [Example 46b, (8-(3,4-difluorophenyl)-6-azaspiro[3.4]octan-6-yl)(3-hydroxyisoxazol-5-yl)methanone], the “mPTP Rat liver pIC50*” value in the assay on mPTP [1] is on record as less than 4.52. Besides, in the assay on mPTP [2], the “mPTP Rat brain pIC50” value was determined as 7.03.

On to `O=C(c1noc(=O)[nH]1)N1CC(c2ccc(F)c(F)c2)C2(CCC2)C1` (single isomer, unassigned) [Example 47a, 3-(8-(3,4-difluorophenyl)-6-azaspiro[3.4]octane-6-carbonyl)-1,2,4-oxadiazol-5(4H)-one], for which the “mPTP Rat liver pIC50*” value in the assay on mPTP [1] stood at 5.75. Further, the “mPTP Rat brain pIC50” value in the assay on mPTP [2] stood at 7.

For the compound `O=C(c1noc(=O)[nH]1)N1CC(c2ccc(F)c(F)c2)C2(CCC2)C1` (single isomer, unassigned) [Example 47b, 3-(8-(3,4-difluorophenyl)-6-azaspiro[3.4]octane-6-carbonyl)-1,2,4-oxadiazol-5(4H)-one], in the assay on mPTP [1], the “mPTP Rat liver pIC50*” value was less than 4.52. For the same compound, the “mPTP Rat brain pIC50” value with mPTP [2] was less than 4.52.

As to `O=C(c1noc(=O)[nH]1)N1CC(c2ccc(F)cc2F)C2(CCC2)C1` (single isomer, unassigned) [Example 48a, 3-(8-(2,4-difluorophenyl)-6-azaspiro[3.4]octane-6-carbonyl)-1,2,4-oxadiazol-5(4H)-one], the “mPTP Rat liver pIC50*” value in the assay on mPTP [1] was found to be 5.53. The “mPTP Rat brain pIC50” value in the assay with mPTP [2] is recorded as 6.47.
